Source: patent US4292319A, “Antiphlogistic pharmaceutical compositions and method of use” (Boehringer Ingelheim GmbH, priority 1977, dated 1981)
Where “and” joins values, the source holds several entries; their conditions need not be identical. Equal values may be shown once. Read-outs that look alike come from different tables or passages of the source.

Tests used:
[1] = tested on: carrageenin-induced edema of the hind paw of the rat; assay: Test for antiphlogistic effect against the carrageenin-induced edema of the hind paw of the rat; type: in vivo; conditions: for Thickness of the paw (mean): oral, 3 h after carrageenin; for Thickness of the paw (mean) / ED35: rat; for influence on acute anti-exudative (antiphlogistic) effect of non-steroidal antiphlogistics: carrageenin-induced edema, simultaneous oral administration; for ED35: Rattus norvegicus, po, 3 h, carrageenin edema
Experimental: The test was carried out in analogy to the above test for the kaolin-induced edema. However, the edema was induced according to the method of WINTER et al. [J. Pharmacol. 141, 369 (1963)] by subplantary injection of 0.05 ml of a 1% solution of carrageenin in an aqueous 0.85% solution of sodium chloride. […] Three hours after the provocation of the edema the measurement which provided the basis for the evaluation of an anti-exudative effect was carried out.
(§1) From the swelling values obtained by administration of different dosages of non-steroidal antiphlogistics with or without the addition of pirenzepine dihydrochloride, using a linear regression analysis according to LINDNER [Statistische Methoden, 4th Ed., pages 148-162, Birkhauser, Basel, Switzerland (1964)], the ED35 values of the antiphlogistics were calculated with the confidence limits according to FIELLER [Quart. J. Pharm. Pharmacol. 17, 117 (1944)], the ED35 being the dosage which reduces the swelling of the paws by 35% in comparison to the control animals.

ulcer = type: in vivo; conditions: pirenzepine dihydrochloride together with indomethacin; several hundred cases, two years
[2] = tested on: kaolin-induced edema of the rat's hind paw; assay: Test for antiphlogistic effect against the kaolin-induced edema of the rat's hind paw; type: in vivo, rat (Chbb:THOM); conditions: for Thickness of the paw (mean) / ED35: oral, rat; for Thickness of the paw (mean): 5 h after kaolin; for influence on acute anti-exudative (antiphlogistic) effect of non-steroidal antiphlogistics: kaolin-induced edema, simultaneous oral administration; for ED35: Rattus norvegicus, po, 5 h, kaolin edema, read-out: ED35
Experimental: (2) Test for antiphlogistic effect against the kaolin-induced edema of the rat's hind paw (tested substances: A, B, C and D)
The test was carried out on male Chbb:THOM-rats with a body weight between 125 and 150 gm. According to HILLEBRECHT [Arzneimittel-Forsch. 4, 607 (1954)], a subplantary injection of 0.05 ml of a 10% suspension of kaolin in an aqueous 0.85% sodium chloride solution in the hind paw was used for the provocation of the kaolin edema. The other hind paw was subplantarily injected with the same volume of an aqueous 0.85% sodium chloride solution.
The measurement of the thickness of the paws was carried out using the technique of DOEPFNER and […] [Int. Arch. Allergy appl. Immunol. 12, 89 (1958)] by way of the determination of the maximum sagittal diameter, using a measuring device with constant pressure, before and 5 hours after the provocation of the edema.
The test substances (the non-steroidal antiphlogistics or the mixture of non-steroidal antiphlogistics with pirenzepine dihydrochloride) were administered 30 minutes before provocation of the edema as a trituration in 1% tylose (1 ml/[…]) by way of an esophageal tube.
The diameter of the paw measured before the beginning of the test as well as the increase in diameter of the other paw caused by injection were subtracted from the diameter of the kaolin-treated paw, and this difference, being the real swelling value, was used for the further calculations.
as §1

stomach of the rat = assay: Test for ulcerogenic effect on the stomach of the rat; type: in vivo, rat (Chbb:THOM); conditions: oral, 3 subsequent days
Experimental: (§2) (1) Test for ulcerogenic effect on the stomach of the rat
(§3) The test was carried out on male and female (1:1) Chbb:THOM-rats with a body weight between 130 to 150 gm at the beginning of the study.
(§4) The test substances (non-steroidal anti-phlogistics or mixtures of these antiphlogistics with pirenzepine dihydrochloride) were administered as triturations in 1% tylose (1 ml/100 gm animal) by way of an esophageal tube once a day on three successive days.
(§5) Four hours after the last administration (i.e. on the 3rd day) the animals were killed by an over-dose of ether. The stomachs wer dissected, cut along the great curvature and washed under flowing water for subsequent macroscopic evaluation.

[3] = as above; type: in vivo, rat (Chbb:THOM); conditions: in vivo, po, ED50-ulcer
Experimental: as §2, §3, §4, §5

gastro-intestinal tract = conditions: cited from earlier work
[4] = listed as pirenzepine dihydrochloride, dihydrochloride
[5] = antiphlogistic 50 mgm/kg, without A
[6] = antiphlogistic 25 mgm/kg, without A
[7] = antiphlogistic 50 mgm/kg + A 400 mgm/kg
[8] = antiphlogistic 100 mgm/kg + A 400 mgm/kg
[9] = antiphlogistic 100 mgm/kg, without A
[10] = antiphlogistic 200 mgm/kg, without A

Question: Which results are given for `CN1CCN(CC(=O)N2c3ccccc3C(=O)Nc3cccnc32)CC1.Cl.Cl` [A, 5,11-dihydro-11-[(4-methyl-1-piperazinyl)-acetyl]-6H-pyrido[2,3-b] [1,4] benzodiazepin-6-one dihydrochloride]?
Answer: Thickness of the paw (mean) ([1]; Controls with A 400 mgm/kg, no antiphlogistic, dihydrochloride): 272.0 10^-2 mm and 271.0 10^-2 mm; influence on acute anti-exudative (antiphlogistic) effect of non-steroidal antiphlogistics ([1]; dihydrochloride): not reduced; influence on acute anti-exudative (antiphlogistic) effect of non-steroidal antiphlogistics [1, 4]: does not lead to a reduction of the acute anti-exudative effect; ulcer rate (ulcer): ~0%; Thickness of the paw (mean) ([2]; Controls with A 100 mgm/kg, no antiphlogistic, dihydrochloride): 277.5 10^-2 mm and 276.3 10^-2 mm and 278.0 10^-2 mm; influence on acute anti-exudative (antiphlogistic) effect of non-steroidal antiphlogistics ([2]; dihydrochloride): not reduced; influence on acute anti-exudative (antiphlogistic) effect of non-steroidal antiphlogistics [2, 4]: does not lead to a reduction of the acute anti-exudative effect

Question: Which “Ratio of animals with ulcers” value (stomach of the rat; antiphlogistic 28.1 mgm/kg, without A) does the source give for `OCCCCc1ccc(-c2ccccc2)cc1` [D, 4-(4-biphenylyl)-butanol] here?
Answer: 4/17

Question: What about the “Ratio of animals with ulcers” value (stomach of the rat; antiphlogistic 37.5 mgm/kg, without A) of the same compound?
Answer: 5/17

Question: And the “Ratio of animals with ulcers” value (stomach of the rat; antiphlogistic 50.0 mgm/kg + A 50 mgm/kg)?
Answer: 1/16

Question: And the “Ratio of animals with ulcers” value (stomach of the rat; antiphlogistic 50 mgm/kg + A 100 mgm/kg)?
Answer: 2/16

Question: And the “Ratio of animals with ulcers” value (stomach of the rat; [5])?
Answer: 9/17

Question: What about the “Ratio of animals with ulcers” value (stomach of the rat; antiphlogistic 67.5 mgm/kg + A 50 mgm/kg) of the same compound?
Answer: 6/16

Question: And the “Ratio of animals with ulcers” value (stomach of the rat; antiphlogistic 67.5 mgm/kg + A 100 mgm/kg)?
Answer: 5/15

Question: And the “Ratio of animals with ulcers” value (stomach of the rat; antiphlogistic 67.5 mgm/kg, without A)?
Answer: 15/17

Question: And the “Ratio of animals with ulcers” value (stomach of the rat; antiphlogistic 91.1 mgm/kg + A 50 mgm/kg)?
Answer: 11/14

Question: What about the “Ratio of animals with ulcers” value (stomach of the rat; antiphlogistic 91.1 mgm/kg + A 100 mgm/kg) of the same compound?
Answer: 7/15

Question: And the “Ratio of animals with ulcers” value (stomach of the rat; antiphlogistic 123.0 mgm/kg + A 50 mgm/kg)?
Answer: 13/14

Question: What about the “Ratio of animals with ulcers” value (stomach of the rat; antiphlogistic 123.0 mgm/kg + A 100 mgm/kg) of the same compound?
Answer: 10/13

Question: And the TD50 [3]?
Answer: 44.5 mg/kg

Question: And the ED35 ([2]; with A 100 mgm/kg)?
Answer: 12.1 mg/kg

Question: What about the ED35 ([2]; without A) of the same compound?
Answer: 11.2 mg/kg

Question: And the “Thickness of the paw (mean)” value ([2]; antiphlogistic 6.25 mgm/kg + A 100 mgm/kg)?
Answer: 215.5 10^-2 mm

Question: And the “Thickness of the paw (mean)” value ([2]; antiphlogistic 6.25 mgm/kg, without A)?
Answer: 214.3 10^-2 mm

Question: What about the “Thickness of the paw (mean)” value ([2]; antiphlogistic 12 mgm/kg + A 100 mgm/kg) of the same compound?
Answer: 180.4 10^-2 mm

Question: What about the “Thickness of the paw (mean)” value ([2]; antiphlogistic 12 mgm/kg, without A) of the same compound?
Answer: 165.0 10^-2 mm

Question: And the “Thickness of the paw (mean)” value ([2]; antiphlogistic 25 mgm/kg + A 100 mgm/kg)?
Answer: 141.0 10^-2 mm

Question: What about the “Thickness of the paw (mean)” value [2, 6] of the same compound?
Answer: 124.0 10^-2 mm

Question: With `CCCCC1C(=O)N(c2ccccc2)N(c2ccccc2)C1=O` [G, 4-butyl-1,2-diphenyl-3,5-pyrazolidinedione] as the compound, how does the “Ratio of animals with ulcers” value (stomach of the rat; antiphlogistic 50 mgm/kg + A 200 mgm/kg) read?
Answer: 2/20

Question: What about the “Ratio of animals with ulcers” value (stomach of the rat; [7]) of the same compound?
Answer: 0/20

Question: What about the “Ratio of animals with ulcers” value (stomach of the rat; [5]) of the same compound?
Answer: 4/20

Question: What about the “Ratio of animals with ulcers” value (stomach of the rat; antiphlogistic 71 mgm/kg + A 200 mgm/kg) of the same compound?
Answer: 8/20

Question: And the “Ratio of animals with ulcers” value (stomach of the rat; antiphlogistic 71 mgm/kg + A 400 mgm/kg)?
Answer: 0/20

Question: What about the “Ratio of animals with ulcers” value (stomach of the rat; antiphlogistic 100 mgm/kg + A 200 mgm/kg) of the same compound?
Answer: 15/20

Question: And the “Ratio of animals with ulcers” value (stomach of the rat; [8])?
Answer: 6/20

Question: And the “Ratio of animals with ulcers” value (stomach of the rat; [9])?
Answer: 14/20

Question: What about the “Ratio of animals with ulcers” value (stomach of the rat; antiphlogistic 200 mgm/kg + A 200 mgm/kg) of the same compound?
Answer: 20/20

Question: What about the “Ratio of animals with ulcers” value (stomach of the rat; antiphlogistic 200 mgm/kg + A 400 mgm/kg) of the same compound?
Answer: 14/20

Question: And the “Ratio of animals with ulcers” value (stomach of the rat; [10])?
Answer: 20/20

Question: What about the “Ratio of animals with ulcers” value (stomach of the rat; antiphlogistic 400 mgm/kg + A 400 mgm/kg) of the same compound?
Answer: 18/19

Question: What about the TD50 [3] of the same compound?
Answer: 69 mg/kg

Question: What about the ED35 ([1]; with A 400 mgm/kg) of the same compound?
Answer: 45.7 mg/kg

Question: What about the ED35 ([1]; without A) of the same compound?
Answer: 51.7 mg/kg

Question: What about the “Thickness of the paw (mean)” value ([1]; antiphlogistic 25 mgm/kg + A 400 mgm/kg) of the same compound?
Answer: 205.0 10^-2 mm

Question: And the “Thickness of the paw (mean)” value [1, 6]?
Answer: 216.8 10^-2 mm

Question: What about the “Thickness of the paw (mean)” value [1, 7] of the same compound?
Answer: 173.5 10^-2 mm

Question: What about the “Thickness of the paw (mean)” value [1, 5] of the same compound?
Answer: 175.8 10^-2 mm

Question: And the “Thickness of the paw (mean)” value [1, 8]?
Answer: 138.9 10^-2 mm

Question: And the “Thickness of the paw (mean)” value [1, 9]?
Answer: 153.8 10^-2 mm

Question: What about the “Thickness of the paw (mean)” value [1, 10] of the same compound?
Answer: 125.0 10^-2 mm

Question: What about the “gastro-intestinal incompatabilities encountered, share of all cases” value (gastro-intestinal tract; human, in vivo) of the same compound?
Answer: 25-37%

Question: Which “gastro-intestinal incompatabilities encountered, share of all cases” value (gastro-intestinal tract; clinical, depending upon experience, patients and compound primarily used) does the source give for `CCCC1C(=O)N2C(N(C)C)=Nc3ccc(C)cc3N2C1=O` (stereo not shown) [azapropazone, 5-dimethylamino-9-methyl-2-propyl-1H-pyrazolo[1,2-a][1,2,4]benzotriazine-1,3(2H)-dione] here?
Answer: 25-37%
